Experimental data published in patent US9079866B2, “Flap modulators” (JANSSEN PHARMACEUTICA NV, priority 2013, dated 2015).
Where a name gives a salt, the structure may show the parent alone. Read-outs that look alike come from different tables or passages of the source.

Key:
[1] = test system: leukotriene pathway in human whole blood (LTB4 levels); experiment: Human whole blood assay (A23187-stimulated LTB4); type: cell-based; settings: Homo sapiens, read-out: LTB4 IC50 1:1
Method in brief: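 Compounds are pre-incubated 15 min at 37° Celsius in RPMI-diluted (1:1) heparinised whole blood before a 30 min A23187 stimulus (7 μg/mL). Plasma LTB4 is read by immunoassay kit, with IC50 calculated from a 4-parameter equation.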

human FLAP = human FLAP (Homo sapiens (Human), UniProt P20292); experiment: FLAP binding assay (HTRF format)
Method in brief: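 Binding of compounds to FLAP read out as HTRF ratio. Values are the mean of two assay plates, each sample run in duplicate per plate.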

[2] = human whole blood diluted 1:1 in RPMI, A23187-stimulated LTB4
[3] = human FLAP wild type, HTRF format, average of two plates, duplicates
[4] = human whole blood diluted 1:1, A23187-stimulated
[5] = read-out: FLAP Binding wild type HTRF Ki

Sequence of human FLAP (P20292 whole entry): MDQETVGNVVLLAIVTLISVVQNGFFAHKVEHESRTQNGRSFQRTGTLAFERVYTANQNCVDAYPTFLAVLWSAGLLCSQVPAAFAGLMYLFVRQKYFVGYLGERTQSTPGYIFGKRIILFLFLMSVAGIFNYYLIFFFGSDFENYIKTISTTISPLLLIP

SMILES	IC50 [1, 2]	Ki (human FLAP; [3])	IC50 [1, 4]	Ki (human FLAP; wild type FLAP, HTRF format)	other results
Nc1cnc(-c2ccc(-c3ccccc3S(=O)(=O)NCC3CNC3)cc2F)cn1 [Example 125, 4′-(5-Aminopyrazin-2-yl)-N-(azetidin-3-ylmethyl)-3′-fluorobiphenyl-2-sulfonamide]	> 10 µM	0.05 µM	–	–	–
Nc1cnc(-c2ccc(-c3ccc(C(F)(F)F)cc3C(=O)N3CCS(=O)(=O)CC3)cc2F)cn1 [Example 757, 5-{2′-[(1,1-Dioxidothiomorpholin-4-yl)carbonyl]-3-fluoro-4′-(trifluoromethyl)biphenyl-4-yl}pyrazin-2-amine]	–	–	0.0162 µM	0.0052 µM	–
CCN(c1ccccc1-c1ccc(-c2cnc(N)cn2)c(F)c1)S(C)(=O)=O [Example 496, N-[4′-(5-Aminopyrazin-2-yl)-3′-fluorobiphenyl-2-yl]-N-ethylmethanesulfonamide]	–	–	0.165 µM	0.019 µM	–
C[C@H](CO)NS(=O)(=O)c1ccccc1-c1ccc(-c2ncc(N)nc2C#N)c(F)c1 [Example 710, 4′-(5-Amino-3-cyanopyrazin-2-yl)-3′-fluoro-N-[(1R)-2-hydroxy-1-methylethyl]biphenyl-2-sulfonamide]	–	–	0.0565 µM	0.0137 µM	–
CC(C)(C)NS(=O)(=O)c1ccccc1-c1ccc(-c2cnc(N)c(C(F)(F)F)c2)c(F)c1 [Example 452, 4′-[6-Amino-5-(trifluoromethyl)pyridin-3-yl]-N-tert-butyl-3′-fluorobiphenyl-2-sulfonamide trifluoroacetic acid salt]	–	–	1.95 µM	–	Ki (human FLAP; [5]): 0.081 µM
CC(C)(C)NS(=O)(=O)c1ccccc1-c1ccc(-c2cnc(N)cc2C#N)c(F)c1 [Example 436, 4′-(6-Amino-4-cyanopyridin-3-yl)-N-tert-butyl-3′-fluorobiphenyl-2-sulfonamide]	–	–	3.28 µM	0.308 µM	–
Nc1ccc(-c2ccc(-c3ccccc3S(=O)(=O)NCC3(O)CNC3)cc2F)cn1 [Example 358, 4′-(6-Aminopyridin-3-yl)-3′-fluoro-N-((3-hydroxyazetidin-3-yl)methyl)-[1,1′-biphenyl]-2-sulfonamide]	> 10 µM	0.055 µM	–	–	–
Cc1ccnc(Oc2ccccc2-c2ccc(-c3cnc(N)nc3)c(F)c2)n1 [Example 546, 5-{3-Fluoro-2′-[(4-methylpyrimidin-2-yl)oxy]biphenyl-4-yl}pyrimidin-2-amine]	–	–	0.253 µM	0.148 µM	–
CC(C)(C)NS(=O)(=O)c1ccccc1-c1ccc(-c2ccc(N)nc2)c(F)c1 [Example 342, 4′-(6-Aminopyridin-3-yl)-N-(tert-butyl)-3′-fluoro-[1,1′-biphenyl]-2-sulfonamide]	0.117 µM	0.002 µM	–	–	–
C[C@H](CO)NS(=O)(=O)c1ccccc1-c1ccc(-c2cnc(N)nc2)nc1 [Example 694, 2-[6-(2-Aminopyrimidin-5-yl)pyridin-3-yl]-N-[(1R)-2-hydroxy-1-methylethyl]benzenesulfonamide]	–	–	1.01 µM	0.676 µM	–
Nc1cnc(-c2ccc(-c3ccccc3S(=O)(=O)N3CCC[C@@H]3CO)cc2F)cn1 [Example 91, (R)-(1-((4′-(5-Aminopyrazin-2-yl)-3′-fluoro-[1,1′-biphenyl]-2-yl)sulfonyl)pyrrolidin-2-yl)methanol]	0.028 µM	0.005 µM	–	–	–
NC(=O)C1CCN(S(=O)(=O)c2ccccc2-c2ccc(-c3cnc(N)nc3)c(F)c2)CC1 [Example 709, 1-((4′-(2-Aminopyrimidin-5-yl)-3′-fluoro-[1,1′-biphenyl]-2-yl)sulfonyl)piperidine-4-carboxamide]	–	–	0.268 µM	0.0054 µM	–
Nc1ncc(-c2ccc(-c3ccccc3S(=O)(=O)N[C@H]3CCCNC3=O)cc2F)cn1 [Example 267, 4′-(2-Aminopyrimidin-5-yl)-3′-fluoro-N-[(3S)-2-oxopiperidin-3-yl]biphenyl-2-sulfonamide trifluoroacetic acid salt]	0.35 µM	–	–	–	Ki (human FLAP; [5]): 0.154 µM
Nc1cnc(-c2ccc(-c3ccccc3S(=O)(=O)Nc3ccc(C(F)(F)F)nc3)cc2F)cn1 [Example 163, 4′-(5-Aminopyrazin-2-yl)-3′-fluoro-N-[6-(trifluoromethyl)pyridin-3-yl]biphenyl-2-sulfonamide]	0.595 µM	0.001 µM	–	–	–
C[C@H](O)CNS(=O)(=O)c1ccccc1-c1ccc(-c2cnc(N)nc2)c(F)c1 [Example 279, 4′-(2-Aminopyrimidin-5-yl)-3′-fluoro-N-[(2S)-2-hydroxypropyl]biphenyl-2-sulfonamide trifluoroacetic acid salt]	0.149 µM	0.07 µM	–	–	–
Nc1cnc(-c2ccc(-c3ccc(C(F)(F)F)cc3C(=O)N3CCC(O)CC3)cc2F)cn1 [Example 795, [2-[4-(5-Aminopyrazin-2-yl)-3-fluoro-phenyl]-5-(trifluoromethyl)phenyl]-(4-hydroxy-1-piperidyl)methanone]	–	–	0.0686 µM	0.0085 µM	–
Nc1cnc(-c2ccc(-c3cccnc3S(=O)(=O)C3CCC3)cc2F)cn1 [Example 806, 5-(4-(2-(Cyclobutylsulfonyl)pyridin-3-yl)-2-fluorophenyl)pyrazin-2-amine hydrochloride]	–	–	0.0484 µM	0.0018 µM	–

SMILES	IC50 [1, 2]	Ki (human FLAP; [3])	IC50 [1, 4]	Ki (human FLAP; wild type FLAP, HTRF format)	other results
Nc1cnc(-c2ccc(-c3ccccc3S(=O)(=O)NCCCCCCO)cc2F)cn1 [Example 133, 4′-(5-Aminopyrazin-2-yl)-3′-fluoro-N-(6-hydroxyhexyl)biphenyl-2-sulfonamide]	0.032 µM	0.001 µM	–	–	–
C[Si](C)(C)CCOCSc1ccccc1-c1ccc(-c2cnc(N)nc2)c(F)c1 [Example 340, 5-[3-Fluoro-2′-({[2-(trimethylsilyl)ethoxy]methyl}sulfanyl)biphenyl-4-yl]pyrimidin-2-amine]	–	0.104 µM	–	–	IC50 [1]: 0.321 µM
C[C@H](NC(=O)c1ccccc1-c1ccc(-c2cnc(N)cn2)c(F)c1)C(F)(F)F [Example 505, 4′-(5-Aminopyrazin-2-yl)-3′-fluoro-N-[(1S)-2,2,2-trifluoro-1-methylethyl]biphenyl-2-carboxamide]	–	–	0.071 µM	0.018 µM	–
Cc1ncc(CNS(=O)(=O)c2ccccc2-c2ccc(-c3cnc(N)cn3)c(F)c2)c(N)n1 [Example 165, N-[(4-Amino-2-methylpyrimidin-5-yl)methyl]-4′-(5-aminopyrazin-2-yl)-3′-fluorobiphenyl-2-sulfonamide]	0.879 µM	0.018 µM	–	–	–
CC(C)(CO)NS(=O)(=O)c1ccccc1-c1ccc(-c2cnc(N)c(F)c2)c(F)c1 [Example 667, 4′-(6-Amino-5-fluoropyridin-3-yl)-3′-fluoro-N-(1-hydroxy-2-methylpropan-2-yl)-[1,1′-biphenyl]-2-sulfonamide]	–	–	0.0396 µM	0.006 µM	–
CC(C)(C)NS(=O)(=O)c1ccccc1-c1ccc(-c2ccc3scnc3c2)c(F)c1 [Example 424, 4′-(1,3-Benzothiazol-5-yl)-N-tert-butyl-3′-fluorobiphenyl-2-sulfonamide]	–	–	> 10 µM	0.01 µM	–
Nc1cnc(-c2ccc(-c3cccnc3S(=O)(=O)C3CCCC3)cc2F)cn1 [Example 810, 5-(4-(2-(Cyclopentylsulfonyl)pyridin-3-yl)-2-fluorophenyl)pyrazin-2-amine hydrochloride]	–	–	0.00564 µM	0.0006 µM	–
Nc1ncc(-c2ccc(-c3ccccc3S(=O)(=O)N3CCCC(F)(F)C3)cn2)cn1 [Example 679, 5-(5-{2-[(3,3-Difluoropiperidin-1-yl)sulfonyl]phenyl}pyridin-2-yl)pyrimidin-2-amine trifluoroacetic acid salt]	–	–	0.205 µM	–	Ki (human FLAP; [5]): 0.132 µM
C[C@H](NS(=O)(=O)c1ccccc1-c1ccc(-c2ccc(N)nc2)c(F)c1)C(F)(F)F [Example 355, (S)-4′-(6-Aminopyridin-3-yl)-3′-fluoro-N-(1,1,1-trifluoropropan-2-yl)-[1,1′-biphenyl]-2-sulfonamide]	0.029 µM	0.005 µM	–	–	–
Nc1ncc(-c2ccc(-c3ccc(C(F)(F)F)cc3S(=O)(=O)NCCO)cn2)cn1 [Example 690, 2-[6-(2-Aminopyrimidin-5-yl)pyridin-3-yl]-N-(2-hydroxyethyl)-5-(trifluoromethyl)benzenesulfonamide]	–	–	0.118 µM	0.177 µM	–
Nc1cnc(-c2ccc(-c3cccnc3S(=O)(=O)C3CCOCC3)cc2F)cn1 [Example 830, 5-{2-Fluoro-4-[2-(tetrahydro-2H-pyran-4-ylsulfonyl)pyridin-3-yl]phenyl}pyrazin-2-amine hydrochloride]	–	–	0.00555 µM	0.0029 µM	–
COc1cnc(Oc2ccccc2-c2ccc(-c3cnc(N)nc3)c(F)c2)nc1 [Example 550, 5-{3-Fluoro-2′-[(5-methoxypyrimidin-2-yl)oxy]biphenyl-4-yl}pyrimidin-2-amine]	–	–	0.016 µM	0.002 µM	–
CCCS(=O)(=O)c1ccccc1-c1ccc(-c2cnc(N)cn2)c(F)c1 [Example 192, 5-[3-Fluoro-2′-(propylsulfonyl)biphenyl-4-yl]pyrazin-2-amine]	0.171 µM	0.058 µM	–	–	–
Nc1cnc(-c2ccc(-c3ccccc3NS(=O)(=O)C3CC3)cc2F)cn1 [Example 38, N-(4′-(5-aminopyrazin-2-yl)-3′-fluoro-[1,1′-biphenyl]-2-yl)cyclopropanesulfonamide]	0.177 µM	0.033 µM	–	–	–
CC(C)(C)NS(=O)(=O)c1ccccc1-c1ccc(-c2cnc3c(c2)CCN3)c(F)c1 [Example 431, N-tert-Butyl-4′-(2,3-dihydro-1H-pyrrolo[2,3-b]pyridin-5-yl)-3′-fluorobiphenyl-2-sulfonamide]	–	–	0.009 µM	0.001 µM	–
C[C@H](CO)NS(=O)(=O)c1ccccc1-c1ccc(-c2cnc3[nH]ccc3c2)c(F)c1 [Example 363, 3′-Fluoro-N-[(1R)-2-hydroxy-1-methylethyl]-4′-(1H-pyrrolo[2,3-b]pyridin-5-yl)biphenyl-2-sulfonamide]	0.184 µM	0.001 µM	–	–	–
